Measurements reported in patent US20110038952A1, “GAMBOGIC ACID GLYCOSIDE DERIVATIVES AND ANALOGS, THEIR PREPARATION METHODS AND APPLICATIONS” (priority 2007, published 2011).

Key:
[1] = Body weight of mice in the S180 sarcoma study
From the text: (§1) Test samples: example compounds 18, 24, 25, 26 and 27
(§2) Test animals: Kunming kinds of healthy mice (19-21 g), 10 mice (5 male and 5 female)/group, from Beijing Institute of Military Medical Sciences Animal Center.
(§3) Tumor strains: mice sarcoma S180 for ascites passaged from Beijing Academy of Military Medical Institute of Pharmacology.
(§4) Xenografts cultured S180 tumor cells were implanted subcutaneously into the flank region of mice and tumors were allowed to grow to the desired average size of 100 mg. The mice were randomized into control and treatment groups with 10 mice per group. The control group was injected with the vehicle used to dissolve the drug. Other groups received the test compounds (example compound 18, 24, 25, 26 and 27) and positive group, cyclophosphamide (CTX) and 5-fluorouracil (5-FU) at the dose and schedule as indicated in Table VI. Injections were I.V. via the tail vein.

[2] = tested on: human colorectal cancer cell line HT29; assay: In vitro anti-cancer cell experiment (MTT), HT29; type: cell-based; details: for IC50 (50% inhibition of cell viability, MTT): HT29, P<0.05
Experimental: (§5) a. Cell lines: Human pancreatic cancer cell line Panc-1, human colorectal cancer cell line HT29 and human lung cancer cell line NCI-H460; the medium: s DMEM (Gibco BRL), containing 10% fetal calf serum (Gibco BRL) and 2 mM L-glutamine (Gibco BRL).
(§6) b. Test samples: example compounds 3, 18, 25 and 27.
(§7) The samples were dissolved in dimethyl sulfoxide (DMSO, Sigma, United States) and medium was added to the final concentration of 0.5%. Cisplatin was as positive control of (CDDP, purity 96%, from Kunming Institute of Precious Metals).
(§8) c. Method: cells were digested with trypsin and dispersed into single cells in the medium containing penicillin (25 U/ml) and streptomycin (25 μg/ml). The cells were seeded in 96-well culture plates (Corning Incorporated), at 37° C., in a humidified atmosphere with 5% CO2 present for 24 hours. The culture medium was removed, […] test compounds were added, cultured for 48 hours. Culture medium was removed and […] (MTT, USA Sigma products) was added. The result was assayed by SK601-based microplate reader (Japan Seikagaku company's products), 570 nm/630 nm optical density (OD).
(§9) Calculation of cell viability: (Experimental group OD/control OD)×100%; Positive control CDDP was treated in the same way.

mice sarcoma S180 = assay: Growth inhibition of S180 sarcoma in mice; type: in vivo
From the text: as §1, §2, §3, §4

[3] = tested on: human lung cancer cell line NCI-H460; assay: In vitro anti-cancer cell experiment (MTT), NCI-H460; type: cell-based; details: NCI-H460, P<0.05
Experimental: as §5, §6, §7, §8, §9

[4] = Chronic toxicity, 30 days, mice
Experimental: Animals were given an injection in the tail vein with approximately 100 μl volume of compound formulation or vehicle formulation. Mice body weights were measured daily along with daily observation for 30 days.
(1) The general behavior, body weight and organ weight of animal.
(2) Blood test: white blood cells (WB), red blood cells (RB), hemoglobin (Hb), alanine aminotransferase (ALT), aspartate aminotransferase (AST), alkaline phosphatase (ALP), serum uric acid (UA), blood urea (UREA) and creatinine (Cr).
(3) Pathological examination: heart, liver, spleen, lung and kidney.

[5] = tested on: Human pancreatic cancer cell line Panc-1; assay: In vitro anti-cancer cell experiment (MTT), Panc-1; type: cell-based
Experimental: as §5, §6, §7, §8, §9

[6] = S180 mice, I.V. tail vein, 1 mg/kg
[7] = S180 mice, I.V. tail vein, 2 mg/kg
[8] = S180 mice, I.V. tail vein, 4 mg/kg
[9] = S180 mice, 24 one dose, 25 three doses, 26 three doses, 27 one dose
[10] = S180 mice, I.V. tail vein, 5 mg/kg
[11] = S180 mice, I.V. tail vein, 10 mg/kg
[12] = mice, tail vein, 2, 4 and 8 mg/kg, 30 days, vs control group
[13] = S180 mice, I.V. tail vein, 8 mg/kg
[14] = S180 mice, I.V. tail vein, 12 mg/kg
[15] = S180 mice, I.V. tail vein, 25 mg/kg
[16] = S180 mice, I.V. tail vein, 15 mg/kg

9,10-Dihydro-10-(N-methyl-1-naphthoylamino) gambogyl (N-methyl)-1-naphthoylamine [Example 25]
body weight/g After ad. ([1]; mouse, in vivo, iv, 1 mg/kg): 24.75 ± 2.56 g
body weight/g Before ad. ([1]; mouse, in vivo, iv, 1 mg/kg): 22.59 ± 1.36 g
body weight/g Without tumor ([1]; mouse, in vivo, iv, 1 mg/kg): 23.27 ± 2.16 g
body weight/g After ad. ([1]; mouse, in vivo, iv, 2 mg/kg): 22.75 ± 3.51 g
body weight/g Before ad. ([1]; mouse, in vivo, iv, 2 mg/kg): 22.36 ± 1.30 g
body weight/g Without tumor ([1]; mouse, in vivo, iv, 2 mg/kg): 21.69 ± 3.13 g
body weight/g After ad. ([1]; mouse, in vivo, iv, 4 mg/kg): 21.47 ± 3.69 g
body weight/g Before ad. ([1]; mouse, in vivo, iv, 4 mg/kg): 22.38 ± 1.80 g
body weight/g Without tumor ([1]; mouse, in vivo, iv, 4 mg/kg): 20.77 ± 3.37 g
IC50 (50% inhibition of cell viability, MTT) [2]: 3.75 µg/mL
Inhibition rate (%) (mice sarcoma S180; [6]): 44.6%
Tumor weight (mice sarcoma S180; [6]): 1.34 ± 0.47 g
Inhibition rate (%) (mice sarcoma S180; [7]): 58.3%
Tumor weight (mice sarcoma S180; [7]): 1.00 ± 0.34 g
Inhibition rate (%) (mice sarcoma S180; [8]): 65.2%
Tumor weight (mice sarcoma S180; [8]): 0.84 ± 0.35 g
anti-tumor efficacy (in vivo), statistical significance (mice sarcoma S180; [9]): statistically significant

CCCCCN(CCCCC)C(=O)/C(C)=C\CC12OC(C)(C)C3C[C@H](C=C4C(=O)c5c(O)c6c(c(CC=C(C)C)c5OC431)OC(C)(CCC=C(C)C)C=C6)C2=O (some centres unmarked) [Example 18, Gambogyl Dipentylamine]
body weight/g After ad. ([1]; mouse, in vivo, iv, 5 mg/kg): 27.91 ± 4.08 g
body weight/g Before ad. ([1]; mouse, in vivo, iv, 5 mg/kg): 22.80 ± 1.73 g
body weight/g Without tumor ([1]; mouse, in vivo, iv, 5 mg/kg): 26.49 ± 4.62 g
body weight/g After ad. ([1]; mouse, in vivo, iv, 10 mg/kg): 26.08 ± 2.8 g
body weight/g Before ad. ([1]; mouse, in vivo, iv, 10 mg/kg): 27.32 ± 2.2 g
body weight/g Without tumor ([1]; mouse, in vivo, iv, 10 mg/kg): 25.06 ± 2.09 g
IC50 (the compound concentration producing 50% inhibition of colony formation) on NCI-H460 [3]: 4.73 µg/mL
Inhibition rate (%) (mice sarcoma S180; [10]): 40.3%
Tumor weight (mice sarcoma S180; [10]): 1.44 ± 0.39 g
Inhibition rate (%) (mice sarcoma S180; [11]): 52.5%
Tumor weight (mice sarcoma S180; [11]): 1.14 ± 0.42 g

COC(=O)/C(C)=C\CC12OC(C)(C)C3C[C@H](C=C4C(=O)c5c(OC(=O)c6ccc(OC7O[C@H](CO)[C@@H](O)[C@@H](O)[C@H]7O)cc6)c6c(c(CC=C(C)C)c5OC431)OC(C)(CCC=C(C)C)C=C6)C2=O (stereo partly drawn) [Example 26, Methyl-6-(4-O-D-allosyl)benzoyl gambogate]
body weight/g After ad. ([1]; mouse, in vivo, iv, 4 mg/kg): 23.71 ± 3.85 g
body weight/g Before ad. ([1]; mouse, in vivo, iv, 4 mg/kg): 25.89 ± 2.62 g
body weight/g Without tumor ([1]; mouse, in vivo, iv, 4 mg/kg): 22.54 ± 3.42 g
body weight/g After ad. ([1]; mouse, in vivo, iv, 8 mg/kg): 21.42 ± 0.88 g
body weight/g Before ad. ([1]; mouse, in vivo, iv, 8 mg/kg): 24.41 ± 2.28 g
body weight/g Without tumor ([1]; mouse, in vivo, iv, 8 mg/kg): 20.56 ± 0.54 g
body weight/g After ad. ([1]; mouse, in vivo, iv, 12 mg/kg): 26.71 ± 5.56 g
body weight/g Before ad. ([1]; mouse, in vivo, iv, 12 mg/kg): 25.58 ± 2.48 g
body weight/g Without tumor ([1]; mouse, in vivo, iv, 12 mg/kg): 26.07 ± 5.40 g
alanine aminotransferase (ALT) ([4]; high dose group, recovery to normal level): slightly incretion
Pathological examination: heart [4, 12]: no abnormal of heart tissue
Pathological examination: liver [4, 12]: no abnormal tissue in rat liver slices
Pathological examination: lung [4, 12]: no abnormal tissue in rat lung slices
Pathological examination: renal [4, 12]: no abnormal tissue in rat renal slices
Pathological examination: spleen [4, 12]: no abnormal tissue in rat spleen slices
toxic pathological changes of the heart, liver, spleen, lung and kidney ([4]; three dose mice groups, continuous administration for 30 days): no toxic pathological changes
Inhibition rate (%) (mice sarcoma S180; [8]): 53.7%
Tumor weight (mice sarcoma S180; [8]): 1.12 ± 0.40 g
Inhibition rate (%) (mice sarcoma S180; [13]): 60.2%
Tumor weight (mice sarcoma S180; [13]): 0.96 ± 0.32 g
Inhibition rate (%) (mice sarcoma S180; [14]): 69.3%
Tumor weight (mice sarcoma S180; [14]): 0.74 ± 0.11 g
anti-tumor efficacy (in vivo), statistical significance (mice sarcoma S180; [9]): statistically significant

O=P1(N(CCCl)CCCl)NCCCO1 (centres unmarked) [CTX, cyclophosphamide, reference compound]
body weight/g Without tumor [1, 15]: 23.94 ± 2.60 g
body weight/g After ad. ([1]; S180 mice, I.V. tail vein, 25 mg/kg, after administration): 25.44 ± 2.92 g
body weight/g Before ad. ([1]; S180 mice, I.V. tail vein, 25 mg/kg, before administration): 22.64 ± 1.28 g
Inhibition rate (%) (mice sarcoma S180; [15]): 48.6%
Tumor weight (mice sarcoma S180; [15]): 1.24 ± 0.50 g

COC(=O)/C(C)=C\CC12OC(C)(C)C3C[C@H](C=C4C(=O)c5c(OC6O[C@H](CO)[C@@H](O)[C@@H](O)[C@H]6O)c6c(c(CC=C(C)C)c5OC431)OC(C)(CCC=C(C)C)C=C6)C2=O (stereo partly drawn) [Example 24, Methyl-6-O-D-allosyl gambogate]
body weight/g After ad. ([1]; mouse, in vivo, iv, 10 mg/kg): 19.77 ± 1.88 g
body weight/g Before ad. ([1]; mouse, in vivo, iv, 10 mg/kg): 21.67 ± 1.26 g
body weight/g Without tumor ([1]; mouse, in vivo, iv, 10 mg/kg): 18.89 ± 1.45 g
Inhibition rate (%) (mice sarcoma S180; [11]): 61.0%
Tumor weight (mice sarcoma S180; [11]): 0.94 ± 0.26 g
anti-tumor efficacy (in vivo), statistical significance (mice sarcoma S180; [9]): statistically significant

O=c1[nH]cc(F)c(=O)[nH]1 [Example 5-FU, 5-fluorouracil, reference compound]
IC50 ([5]; Homo sapiens, Panc-1, 48 hours, MTT): 193 µM
body weight/g After ad. ([1]; mouse, in vivo, iv, 15 mg/kg): 28.66 ± 2.89 g
body weight/g Before ad. ([1]; mouse, in vivo, iv, 15 mg/kg): 23.07 ± 1.75 g
body weight/g Without tumor ([1]; mouse, in vivo, iv, 15 mg/kg): 27.19 ± 2.88 g
IC50 ([2]; Homo sapiens, HT-29, HT29, 48 hours, MTT, second of two HT29 columns): 92.3 µM
Inhibition rate (%) (mice sarcoma S180; [16]): 43.2%
Tumor weight (mice sarcoma S180; [16]): 1.37 ± .033 g

CC(C)=CCCC1(C)C=Cc2c(O)c3c(c(CC=C(C)C)c2O1)OC12C(=C[C@H]4CC1C(C)(C)OC2(C/C=C(/C)C(=O)OCCO)C4=O)C3=O (some centres unmarked) [Example 3, Ethylene Glycol Gambogate]
IC50 (the compound concentration producing 50% inhibition of colony formation) on Panc-1 ([5]; Panc-1, P<0.05): 23.4 µg/mL
IC50 (the compound concentration producing 50% inhibition of colony formation) on NCI-H460 [3]: 6.18 µg/mL

CC(C)=CCCC1(C)C=Cc2c(c(CC=C(C)C)c3c(c2OC(=O)c2ccc(OC4O[C@H](CO)[C@@H](O)[C@@H](O)[C@H]4O)cc2)C(=O)C2=C[C@H]4CC5C(C)(C)OC(C/C=C(/C)C(=O)N(C)Cc6cccc7ccccc67)(C4=O)C25O3)O1 (stereo partly drawn) [Example 27, 6-(4-O-D-Allosylbenzoyl) gambogyl (N-methyl-1-naphthalene) methylamine]
body weight/g After ad. ([1]; mouse, in vivo, iv, 25 mg/kg): 20.83 ± 1.36 g
body weight/g Before ad. ([1]; mouse, in vivo, iv, 25 mg/kg): 20.90 ± 1.06 g
body weight/g Without tumor ([1]; mouse, in vivo, iv, 25 mg/kg): 19.00 ± 1.39 g
body weight/g After ad. ([1]; mouse, in vivo, iv, 30 mg/kg): 20.22 ± 2.11 g
body weight/g Before ad. ([1]; mouse, in vivo, iv, 30 mg/kg): 19.07 ± 1.40 g
body weight/g Without tumor ([1]; mouse, in vivo, iv, 30 mg/kg): 18.67 ± 2.08 g
IC50 (50% inhibition of cell viability, MTT) [2]: 1.19 µg/mL
anti-tumor efficacy (in vivo), statistical significance (mice sarcoma S180; mouse, in vivo): statistically significant
Inhibition rate (%) (mice sarcoma S180; mouse, in vivo, iv, 25 mg/kg): 32.5%
Tumor weight (mice sarcoma S180; mouse, in vivo, iv, 25 mg/kg): 1.63 ± 0.47 g
Inhibition rate (%) (mice sarcoma S180; mouse, in vivo, iv, 30 mg/kg): 37.0%
Tumor weight (mice sarcoma S180; mouse, in vivo, iv, 30 mg/kg): 1.52 ± 0.30 g
